In article PMC7732531 (Frontiers in Pharmacology, 2020):

Tests used:
[1] = Blood/plasma partitional ratio, human blood; format: in vitro ADME; conditions: fresh pooled whole blood with heparin, human whole blood, 37°C, read-out: blood/plasma partitioning (R b/P)
Experimental: The blood/plasma partitional ratio (R b/p) in rat and human blood was measured in vitro using fresh pooled blood including heparin. Whole blood was preincubated at 37°C in a water bath, and spiked with YL-IPA08 at 1 µM. The blood samples were incubated at 37°C for 1 h. After incubation, aliquots of 25 µl spiked whole blood were removed, and the remaining blood was centrifuged at 2,000 × g for 10 min, after which 25 µl aliquots of plasma were removed. Obtained blood and plasma samples were spiked with same volume of blank plasma or blood, respectively, and then immediately precipitated by adding 4× volumes of acetonitrile containing IS to get the same matrix. The concentrations of YL-IPA08 in blood and plasma were determined by LC-MS/MS.

[2] = Pharmacokinetics in rats with ABT pretreatment (intestinal and hepatic availability); conditions: for concentration at 0.033 h / concentration at 0.083 h / concentration at 8 h / concentration at 12 h / concentration at 24 h / concentration at 0.25 h / concentration at 0.5 h / concentration at 1 h / concentration at 2 h / concentration at 4 h / concentration at 6 h / AUC(0-t) / AUC(0-inf) / MRT last / Vd / clearance / half-life / bioavailability / Cmax / Tmax: rat, plasma; for concentration at 0.033 h / concentration at 0.083 h / concentration at 8 h / concentration at 12 h / concentration at 24 h / concentration at 0.25 h / concentration at 0.5 h / concentration at 1 h / concentration at 2 h / concentration at 4 h / concentration at 6 h: Plasma concentration; for concentration at 0.033 h / concentration at 0.083 h / concentration at 8 h / concentration at 12 h / concentration at 24 h / concentration at 0.25 h / concentration at 0.5 h / concentration at 1 h / concentration at 2 h / concentration at 4 h / concentration at 6 h / AUC(0-inf) / MRT last / E g (gut extraction) / E h (hepatic extraction) / F g / F h / F p.o. / reduction of systemic clearance: rats; for MRT last: MRT(0–t)
[3] = iv, 0.1 mg/kg, p.o. ABT, i.v. YL-IPA08 (0.1 mg/kg)
[4] = iv, 0.1 mg/kg, with ABT 100 mg/kg p.o., 15 h before dosing
[5] = iv, 0.5 mg/kg, i.v. ABT, i.v. YL-IPA08 (0.5 mg/kg)
[6] = iv, 0.5 mg/kg, with ABT 50 mg/kg i.v., 1 h before dosing
[7] = po, 1 mg/kg, i.v. ABT, p.o. YL-IPA08 (1 mg/kg)
[8] = po, 1 mg/kg, p.o. ABT, p.o. YL-IPA08 (1 mg/kg)
[9] = po, 1 mg/kg, with ABT 50 mg/kg i.v., 1 h before dosing
[10] = po, 1 mg/kg, with ABT 100 mg/kg p.o., 15 h before dosing

## CCN(Cc1ccccn1)C(=O)Cc1c(-c2ccc(Cl)c(Cl)c2)nc2cc(C)ccn12 [YL-IPA08]
[1]
  blood plasma ratio at 1 h, 1 µM: 1.58 ± 0.06
[2]; intravenous, 0.1 mg/kg, p.o. 100 mg/kg ABT, i.v. 0.1 mg/kg YL-IPA08, 0.033 h
  concentration at 0.033 h: 465 ± 68.7 ng/mL
[2]; intravenous, 0.1 mg/kg, p.o. 100 mg/kg ABT, i.v. 0.1 mg/kg YL-IPA08, 0.083 h
  concentration at 0.083 h: 398 ± 51.3 ng/mL
[2]; intravenous, 0.1 mg/kg, p.o. 100 mg/kg ABT, i.v. 0.1 mg/kg YL-IPA08, 8 h
  concentration at 8 h: 8.97 ± 2.63 ng/mL
[2]; intravenous, 0.1 mg/kg, p.o. 100 mg/kg ABT, i.v. 0.1 mg/kg YL-IPA08, 12 h
  concentration at 12 h: 4.58 ± 1.17 ng/mL
[2]; intravenous, 0.1 mg/kg, p.o. 100 mg/kg ABT, i.v. 0.1 mg/kg YL-IPA08, 24 h
  concentration at 24 h: 0.65 ± 0.29 ng/mL
[2]; intravenous, 0.5 mg/kg, i.v. 50 mg/kg ABT, i.v. 0.5 mg/kg YL-IPA08, 0.033 h
  concentration at 0.033 h: 398 ± 77.8 ng/mL
[2]; intravenous, 0.5 mg/kg, i.v. 50 mg/kg ABT, i.v. 0.5 mg/kg YL-IPA08, 0.083 h
  concentration at 0.083 h: 285 ± 28.2 ng/mL
[2]; intravenous, 0.5 mg/kg, i.v. 50 mg/kg ABT, i.v. 0.5 mg/kg YL-IPA08, 12 h
  concentration at 12 h: 6.73 ± 2.47 ng/mL
[2]; intravenous, 0.5 mg/kg, i.v. 50 mg/kg ABT, i.v. 0.5 mg/kg YL-IPA08, 24 h
  concentration at 24 h: 2.01 ± 0.93 ng/mL
[2]; intravenous, i.v. 50 mg/kg ABT, i.v. 0.5 mg/kg YL-IPA08, 0.25 h
  concentration at 0.25 h: 208 ± 29.4 ng/mL
[2]; intravenous, i.v. 50 mg/kg ABT, i.v. 0.5 mg/kg YL-IPA08, 0.5 h
  concentration at 0.5 h: 156 ± 21.5 ng/mL
[2]; intravenous, i.v. 50 mg/kg ABT, i.v. 0.5 mg/kg YL-IPA08, 1 h
  concentration at 1 h: 113 ± 14.7 ng/mL
[2]; intravenous, i.v. 50 mg/kg ABT, i.v. 0.5 mg/kg YL-IPA08, 2 h
  concentration at 2 h: 54.8 ± 11.8 ng/mL
[2]; intravenous, i.v. 50 mg/kg ABT, i.v. 0.5 mg/kg YL-IPA08, 4 h
  concentration at 4 h: 17.6 ± 5.36 ng/mL
[2]; intravenous, i.v. 50 mg/kg ABT, i.v. 0.5 mg/kg YL-IPA08, 6 h
  concentration at 6 h: 10.8 ± 3.07 ng/mL
[2]; intravenous, i.v. 50 mg/kg ABT, i.v. 0.5 mg/kg YL-IPA08, 8 h
  concentration at 8 h: 8.91 ± 3.06 ng/mL
[2]; intravenous, p.o. 100 mg/kg ABT, i.v. 0.1 mg/kg YL-IPA08, 0.25 h
  concentration at 0.25 h: 266 ± 55.2 ng/mL
[2]; intravenous, p.o. 100 mg/kg ABT, i.v. 0.1 mg/kg YL-IPA08, 0.5 h
  concentration at 0.5 h: 245 ± 30.4 ng/mL
[2]; intravenous, p.o. 100 mg/kg ABT, i.v. 0.1 mg/kg YL-IPA08, 1 h
  concentration at 1 h: 192 ± 16.5 ng/mL
[2]; intravenous, p.o. 100 mg/kg ABT, i.v. 0.1 mg/kg YL-IPA08, 2 h
  concentration at 2 h: 114 ± 13.7 ng/mL
[2]; intravenous, p.o. 100 mg/kg ABT, i.v. 0.1 mg/kg YL-IPA08, 4 h
  concentration at 4 h: 38.7 ± 13.7 ng/mL
[2]; intravenous, p.o. 100 mg/kg ABT, i.v. 0.1 mg/kg YL-IPA08, 6 h
  concentration at 6 h: 14.5 ± 3.66 ng/mL
[2]; iv, 0.1 mg/kg
  AUC(0-t): 125 ± 46.9 ng·h/mL
[2]; [3]
  AUC(0-inf): 126 ± 46.6 ng·h/mL
  MRT last: 5.45 ± 0.66 h
[2]; [4]
  Vd: 1.54 ± 0.49 L/kg
  clearance: 15 ± 4.78 mL/min/kg
  half-life: 1.19 ± 0.12 h
[2]; iv, 0.5 mg/kg
  AUC(0-t): 472 ± 64.3 ng·h/mL
[2]; [5]
  AUC(0-inf): 476 ± 65.8 ng·h/mL
  MRT last: 3.82 ± 0.32 h
[2]; [6]
  Vd: 2.24 ± 0.28 L/kg
  clearance: 17.8 ± 2.74 mL/min/kg
  half-life: 1.46 ± 0.14 h
[2]; oral, 1 mg/kg, i.v. 50 mg/kg ABT, p.o. 1mg/kg YL-IPA08, 0.083 h
  concentration at 0.083 h: 9.32 ± 7.18 ng/mL
[2]; oral, 1 mg/kg, i.v. 50 mg/kg ABT, p.o. 1mg/kg YL-IPA08, 8 h
  concentration at 8 h: 4.51 ± 2.58 ng/mL
[2]; oral, 1 mg/kg, i.v. 50 mg/kg ABT, p.o. 1mg/kg YL-IPA08, 12 h
  concentration at 12 h: 3.98 ± 4.24 ng/mL
[2]; oral, 1 mg/kg, i.v. 50 mg/kg ABT, p.o. 1mg/kg YL-IPA08, 24 h
  concentration at 24 h: 1.28 ± 0.53 ng/mL
[2]; oral, 1 mg/kg, p.o. 100 mg/kg ABT, p.o. 1 mg/kg YL-IPA08, 0.083 h
  concentration at 0.083 h: 546 ± 637 ng/mL
[2]; oral, 1 mg/kg, p.o. 100 mg/kg ABT, p.o. 1 mg/kg YL-IPA08, 8 h
  concentration at 8 h: 34.2 ± 19.6 ng/mL
[2]; oral, 1 mg/kg, p.o. 100 mg/kg ABT, p.o. 1 mg/kg YL-IPA08, 12 h
  concentration at 12 h: 17.4 ± 8.5 ng/mL
[2]; oral, 1 mg/kg, p.o. 100 mg/kg ABT, p.o. 1 mg/kg YL-IPA08, 24 h
  concentration at 24 h: 1.39 ± 0.98 ng/mL
[2]; oral, 1 mg/kg, with ABT 50 mg/kg i.v., 1 h before dosing
  bioavailability: 19.7%
[2]; oral, i.v. 50 mg/kg ABT, p.o. 1mg/kg YL-IPA08, 0.25 h
  concentration at 0.25 h: 28.2 ± 25.2 ng/mL
[2]; oral, i.v. 50 mg/kg ABT, p.o. 1mg/kg YL-IPA08, 0.5 h
  concentration at 0.5 h: 30.3 ± 35.4 ng/mL
[2]; oral, i.v. 50 mg/kg ABT, p.o. 1mg/kg YL-IPA08, 1 h
  concentration at 1 h: 34.8 ± 50.4 ng/mL
[2]; oral, i.v. 50 mg/kg ABT, p.o. 1mg/kg YL-IPA08, 2 h
  concentration at 2 h: 30.5 ± 42 ng/mL
[2]; oral, i.v. 50 mg/kg ABT, p.o. 1mg/kg YL-IPA08, 4 h
  concentration at 4 h: 13.3 ± 17.1 ng/mL
[2]; oral, i.v. 50 mg/kg ABT, p.o. 1mg/kg YL-IPA08, 6 h
  concentration at 6 h: 6.4 ± 4.73 ng/mL
[2]; oral, p.o. 100 mg/kg ABT, p.o. 1 mg/kg YL-IPA08, 0.25 h
  concentration at 0.25 h: 403 ± 402 ng/mL
[2]; oral, p.o. 100 mg/kg ABT, p.o. 1 mg/kg YL-IPA08, 0.5 h
  concentration at 0.5 h: 370 ± 354 ng/mL
[2]; oral, p.o. 100 mg/kg ABT, p.o. 1 mg/kg YL-IPA08, 1 h
  concentration at 1 h: 334 ± 247 ng/mL
[2]; oral, p.o. 100 mg/kg ABT, p.o. 1 mg/kg YL-IPA08, 2 h
  concentration at 2 h: 246 ± 150 ng/mL
[2]; oral, p.o. 100 mg/kg ABT, p.o. 1 mg/kg YL-IPA08, 4 h
  concentration at 4 h: 125 ± 71.7 ng/mL
[2]; oral, p.o. 100 mg/kg ABT, p.o. 1 mg/kg YL-IPA08, 6 h
  concentration at 6 h: 47.7 ± 28.6 ng/mL
[2]; po, 1 mg/kg
  AUC(0-t): 185 ± 148 ng·h/mL
[2]; [7]
  AUC(0-inf): 188 ± 146 ng·h/mL
  MRT last: 8.37 ± 3.67 h
[2]; [8]
  AUC(0-inf): 876 ± 183 ng·h/mL
  MRT last: 5.51 ± 1.25 h
[2]; [9]
  Cmax: 41.8 ± 42 ng/mL
  Tmax: 0.87 ± 0.68 h
[2]; [10]
  AUC(0-t): 868 ± 185 ng·h/mL
  Cmax: 176 ± 88.5 ng/mL
  Tmax: 1.4 ± 1.32 h
  bioavailability: 69.7%
[2]; ABT i.v.
  E g (gut extraction): 75%
  E h (hepatic extraction): 20%
  F g: 25%
  F h: 80%
  F p.o.: ~20%
[2]; ABT p.o.
  E g (gut extraction): 16%
  E h (hepatic extraction): 17%
  F g: 84%
  F h: 83%
  F p.o.: ~70%
[2]; ABT pretreatment through i.v. injection
  reduction of systemic clearance: about 75%
[2]; ABT pretreatment through oral gavage
  reduction of systemic clearance: ~80%
[2]; No ABT
  E g (gut extraction): 65%
  E h (hepatic extraction): 83%
  F g: 35%
  F h: 17%
  F p.o.: 6%
